According to patent US20250332173A1, “COMPOUNDS AND METHODS FOR MODULATING NUCLEIC ACID SPLICING” (REMIX THERAPEUTICS INC., priority 2021, published 2025):
Where two headings read alike, the source gives them in different places.

Key:
[1] = test system: HTT mRNA; assay: RT-qPCR splicing assay, HTT canonical junction (CJ) and alternative junction (AJ) mRNA; type: cell-based, human; conditions: Homo sapiens; for AC50: increase in HTT alternative junction (AJ) mRNA, read-out: HTT AJ AC50
Method in brief: (§1)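 A673 cells (normalized to PPIA) or K562 cells (normalized to GAPDH or GUSB) were treated 24 h at 37 °C with an 11-point 3-fold dilution series, top 10 uM, DMSO ≤0.25%. Cell lysates went to one-step RT-qPCR measuring canonical- and alternative-junction MYB or HTT transcripts.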

[2] = test system: MYB mRNA; assay: RT-qPCR splicing assay, MYB canonical junction (CJ) and alternative junction (AJ) mRNA; type: cell-based, human; conditions: Homo sapiens; for AC50: increase in MYB alternative junction (AJ) mRNA, read-out: MYB AJ AC50
Method in brief: as §1

[3] = test system: K562 (human chronic myelogenous leukemia) cells; assay: Cell Titer Glo 2.0 cell viability assay; type: cell-based; conditions: Homo sapiens, K562, 72 h, K562 cells, 72 hours, Cell Titer Glo 2.0; read-out: K562 GI50
Description: Compounds described herein were screened for toxicity in K562 (human chronic myelogenous leukemia) cells using a Cell Titer Glo 2.0 assay.
Cells were plated at 500 cells/well (K562 cells) in 45 μL of IMDM supplemented with 1000 FBS in a 384-well opaque plate. Wells containing only medium were used as a blank control. Test compounds (e.g., compounds ofFormula (I), (II), (III), (IV), (V), (VI), (VII), (VIII), and (IX)) were first serially diluted in DMSO then diluted 1:100 with IMDM+10% FBS. The final concentration of DMSO was 0.1% in each well. The cells were incubated for 72 hours at 37° C. and 500 CO2 before assaying with Cell Titer Glo 2.0 reagent.

[4] = decrease in HTT canonical junction (CJ) mRNA, RT-qPCR, read-out: HTT CJ IC50
[5] = Table 5 panel, canonical junction qPCR, compound concentration having 50% response in CJ decrease, read-out: HTT IC50 (decrease in CJ mRNA levels)
[6] = Table 5 panel, canonical junction qPCR, compound concentration having 50% response in CJ decrease, read-out: MYB IC50 (decrease in CJ mRNA levels)
[7] = decrease in MYB canonical junction (CJ) mRNA, RT-qPCR, read-out: MYB CJ IC50

Structure (SMILES)	IC50 [1, 4] [µM]	AC50 ([1]; RT-qPCR) [µM]	IC50 [1, 5] [µM]	IC50 [2, 6] [µM]	IC50 [2, 7] [µM]	AC50 ([2]; RT-qPCR) [µM]	GI50 [3] [µM]
Cc1cn2nc(-c3cc(F)c4c(=O)n(C5CCNC5)ccc4c3)cc(C)c2n1 (stereo in doubt) [Compound 382, (R)-6-(2,8-dimethylimidazo[1,2-b]pyridazin-6-yl)-8-fluoro-2-(pyrrolidin-3-yl)isoquinolin-1(2H)-one]	1 to 10	1 to 10	1 to 10	< 0.1	0.1 to 1	< 0.1	1 to 10
Cc1nc2c(F)cc(-c3cc(F)c4c(=O)n(C5CCNC6(CC6)C5)ccc4c3)cc2o1 (stereo not drawn) [Compound 417, 2-{4-azaspiro[2.5]octan-7-yl}-8-fluoro-6-(4-fluoro-2-methyl-1,3-benzoxazol-6-yl)isoquinolin-1-one]	< 0.1	< 0.1	< 0.1	< 0.1	< 0.1	< 0.1	< 0.1
Cc1cn2cc(-c3cc(F)c4c(=O)n(C5CCOC5)cnc4c3)cc(C#N)c2n1 (stereo in doubt) [Compound 499, (R)-6-(5-fluoro-4-oxo-3-(tetrahydrofuran-3-yl)-3,4-dihydroquinazolin-7-yl)-2-methylimidazo[1,2-a]pyridine-8-carbonitrile]	0.1 to 1	0.1 to 1	0.1 to 1	0.1 to 1	0.1 to 1	0.1 to 1	0.1 to 1
Cc1cc(-c2cc(F)c3c(=O)n(C4CCNC5(CC5)C4)ccc3c2)cc2cn(C)nc12 (stereo not drawn) [Compound 415, 2-{4-azaspiro[2.5]octan-7-yl}-6-(2,7-dimethylindazol-5-yl)-8-fluoroisoquinolin-1-one]	< 0.1	< 0.1	< 0.1	< 0.1	< 0.1	< 0.1	0.1 to 1
Cc1cn2cc(-n3ccc4cc(N5C[C@@H](C)N[C@@H](C)C5)ccc4c3=O)nc(C)c2n1 [Compound 454, 2-{2,8-dimethylimidazo[1,2-a]pyrazin-6-yl}-6-[(3R,5S)-3,5-dimethylpiperazin-1-yl]isoquinolin-1-one]	> 10	> 10	> 10	> 10	> 10	> 10	> 10
COc1cc(-c2cc(C)c3nc(C)cn3n2)cc2ccn(C3CCNCC3)c(=O)c12 [Compound 399, 6-{2,8-dimethylimidazo[1,2-b]pyridazin-6-yl}-8-methoxy-2-(piperidin-4-yl)isoquinolin-1-one]	0.1 to 1	0.1 to 1	0.1 to 1	0.1 to 1	0.1 to 1	0.1 to 1	0.1 to 1
Cc1cn2nc(-c3cc(Cl)c4c(=O)n(C5CCNCC5)ccc4c3)cc(C)c2n1 [Compound 390, 8-chloro-6-{2,8-dimethylimidazo[1,2-b]pyridazin-6-yl}-2-(piperidin-4-yl)isoquinolin-1-one; trifluoroacetaldehyde]	< 0.1	< 0.1	< 0.1	< 0.1	< 0.1	< 0.1	< 0.1
Cc1cn2cc(-c3ccc4c(=O)n(C5CCNC6(CC6)C5)ncc4c3)cc(Cl)c2n1 (stereo not drawn) [Compound 510]	1 to 10	0.1 to 1	0.1 to 1	1 to 10	1 to 10	1 to 10	1 to 10
Cc1cn2cc(-c3ccc4c(=O)n(C5CCNC5)cc(C)c4c3)cc(C#N)c2n1 (stereo not drawn) [Compound 442, 2-methyl-6-[4-methyl-1-oxo-2-(pyrrolidin-3-yl)isoquinolin-6-yl]imidazo[1,2-a]pyridine-8-carbonitrile]	> 10	> 10	> 10	> 10	> 10	> 10	> 10
Cc1cn2cc(-c3cc(F)c4c(=O)n(C5CCNC5)ccc4c3)cc(C#N)c2n1 (stereo not drawn) [Compound 434, 6-[8-fluoro-1-oxo-2-(pyrrolidin-3-yl)isoquinolin-6-yl]-2-methylimidazo[1,2-a]pyridine-8-carbonitrile]	> 10	> 10	> 10	0.1 to 1	0.1 to 1	0.1 to 1	1 to 10
Cc1cc(-c2ccc3c(=O)n([C@@H]4CCNC[C@H]4F)ncc3c2)cc2cn(C)nc12 [Compound 378]	1 to 10	1 to 10	1 to 10	1 to 10	1 to 10	1 to 10	1 to 10
Cc1cn2cc(-c3ccc4c(=O)n([C@H]5CCCNC5)ccc4c3)cc(F)c2n1 [Compound 404, 6-{8-fluoro-2-methylimidazo[1,2-a]pyridin-6-yl}-2-[(3S)-piperidin-3-yl]isoquinolin-1-one]	1 to 10	1 to 10	1 to 10	1 to 10	1 to 10	1 to 10	1 to 10
CN1CCC(Nc2ccc3c(=O)n(-c4ccc5nn(C)cc5c4)cnc3c2)CC1 [Compound 163]	> 10	> 10	> 10	1 to 10	> 10	1 to 10	> 10
Cc1cn2nc(-c3cc(C#N)c4c(=O)n(C5CCNC6(CC6)C5)ccc4c3)cc(C)c2n1 (stereo not drawn) [Compound 387]	< 0.1	< 0.1	< 0.1	< 0.1	< 0.1	< 0.1	< 0.1
Cc1cn2cc(-c3cc(F)c4c(=O)n(C5CCNC6(CC6)C5)ccc4c3)cc(Cl)c2n1 (stereo not drawn) [Compound 413, 2-{4-azaspiro[2.5]octan-7-yl}-6-{8-chloro-2-methylimidazo[1,2-a]pyridin-6-yl}-8-fluoroisoquinolin-1-one]	< 0.1	< 0.1	< 0.1	< 0.1	< 0.1	< 0.1	< 0.1
Cc1cn2cc(-c3cc(F)c4c(=O)n(C5CCNC6(CC6)C5)ccc4c3)cc(C)c2n1 (stereo not drawn) [Compound 416, 2-{4-azaspiro[2.5]octan-7-yl}-6-{2,8-dimethylimidazo[1,2-a]pyridin-6-yl}-8-fluoroisoquinolin-1-one]	0.1 to 1	0.1 to 1	0.1 to 1	< 0.1	< 0.1	< 0.1	< 0.1
Cc1cn2cc(-c3cc(F)c4c(=O)n(C5CCOC5)cnc4c3)cc(C#N)c2n1 (stereo in doubt) [Compound 500, (S)-6-(5-fluoro-4-oxo-3-(tetrahydrofuran-3-yl)-3,4-dihydroquinazolin-7-yl)-2-methylimidazo[1,2-a]pyridine-8-carbonitrile]	0.1 to 1	0.1 to 1	0.1 to 1	0.1 to 1	0.1 to 1	0.1 to 1	0.1 to 1
Cc1cn2nc(-c3cc(C)c4c(=O)n(C5CCNC6(CC6)C5)ccc4c3)cc(C)c2n1 (stereo in doubt) [Compound 398, (R)-6-(2,8-dimethylimidazo[1,2-b]pyridazin-6-yl)-8-methyl-2-(4-azaspiro[2.5]octan-7-yl)isoquinolin-1(2H)-one]	< 0.1	< 0.1	< 0.1	< 0.1	< 0.1	< 0.1	< 0.1
Cc1cn2nc(-c3ccc4c(=O)n(C5CCCNC5)ccc4c3)cc(C)c2n1 (stereo in doubt) [Compound 410, 6-{2,8-dimethylimidazo[1,2-b]pyridazin-6-yl}-2-[(3S)-piperidin-3-yl]isoquinolin-1-one]	1 to 10	1 to 10	1 to 10	0.1 to 1	0.1 to 1	0.1 to 1	1 to 10
Cc1c(O)c(-c2cc(F)c3c(=O)n(C4CCNC5(CC5)C4)ccc3c2)cc2cn(C)nc12 (stereo not drawn) [Compound 419, 2-{4-azaspiro[2.5]octan-7-yl}-8-fluoro-6-(6-hydroxy-2,7-dimethylindazol-5-yl)isoquinolin-1-one]	> 10	> 10	> 10	1 to 10	1 to 10	1 to 10	> 10
Cc1cn2nc(-c3cc(F)c4c(=O)n([C@H]5CCNC6(CC6)C5)ncc4c3)cc(C)c2n1 [Compound 447]	< 0.1	< 0.1	< 0.1	< 0.1	< 0.1	< 0.1	0.1 to 1
Cn1cc2cc(-c3cc(F)c4c(=O)n(C5CCNC6(CC6)C5)ccc4c3)cc(F)c2n1 (stereo not drawn) [Compound 412]	< 0.1	< 0.1	< 0.1	< 0.1	< 0.1	< 0.1	< 0.1
Cc1cc(-c2ccc3c(=O)n(C4CCNCC4)cnc3c2)cc2cn(C)nc12 [Compound 174]	0.1 to 1	0.1 to 1	0.1 to 1	0.1 to 1	0.1 to 1	0.1 to 1	0.1 to 1
Cc1cc(-c2ccc3c(=O)n(C4CCN(C)CC4)cnc3n2)cc2cn(C)nc12 [Compound 173]	> 10	> 10	> 10	> 10	> 10	> 10	1 to 10
